Several values for one entry are separate records, joined by “and”; a condition that tells them apart may be missing. Equal values may be shown once. Activity calls are given as the source filed them.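 Rule for the calls: active = compounds giving half or more protection of infected cells from virus-caused growth loss, again on retest; inactive = the rest.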
Test system: CEM cells HIV-1 protection, formazan growth assay
Experiment: NCI AIDS Antiviral Assay
Conditions: for IC50: measured here: growth of uninfected CEM cells
Outline: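 CEM (human) cells, HIV-1 infected vs uninfected, 5-point dosing, formazan growth read-out. Retest threshold 50% protection.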

Structure (SMILES) | EC50 [µM] | IC50 | outcome
C=C1c2nc3ccccc3n2C=C(c2ccc(C)cc2)N1c1ccc(C)cc1 | > 200 | 26.9 µM | –
O=c1ccn(C2CC(F)C(CO)S2)c(=O)[nH]1 (stereo not given) | > 25.1 | > 25.1 µM | –
O=c1n(-c2ccccc2)c(=O)n2n1C1C3C4CCC1C4(Cl)C32 (stereo not given) | > 40.7 | > 40.7 µM | –
O=C(CCCCC(=O)OCC1COCO1)OCC1COCO1 (stereo not given) | > 200 | > 200 µM | –
O=c1oc(=O)c2cc3c(=O)oc(=O)c3cc12 | > 200 | > 200 µM | –
COC(=O)/C=C\C(C#N)(C#N)N=Cc1cccc(OC)c1 | > 20 | 1.26 µM | –
c1cnc(NC(Nc2cnccn2)C2CCCCC2)cn1 | > 240 | > 240 µM | –
Cc1ccc(S(=O)(=O)O/N=C2\CCC\C2=C/c2ccccc2)cc1 | – | – | inactive
CCOCCOC(=O)C1CCC(=O)N1CN(C(C)=O)c1cc(OC)ccc1OC (stereo not given) | – | – | inactive
CC1(CC(=O)O)OC2CCCCCC2O1 (stereo not given) (tested in a mixture with another compound) | – | – | inactive
CN(C(=O)C1=CCC2(CC1)OCCO2)c1ccccc1I | > 200 | > 200 µM | –
COc1ccccc1N1C(=O)/C(=C/c2ccc(N(CCC#N)CCC#N)cc2C)N=C1c1cc([N+](=O)[O-])ccc1Cl | – | – | inactive
CC(=O)CCCCCCCCCCCC[C@@H]1CC[C@H](C)[C@H](O)N1 | > 21.9 | > 21.9 µM | –
Cc1c2ccccc2c(CSC(=N)N)c2ccccc12 | > 200 | 0.112 µM | –
Clc1ccc(OCc2nnc3n2N=C(c2ccccc2)CS3)c(Cl)c1 | – | – | inactive
Cn1c(-c2ccccc2)cc(-c2ccsc2)c1-c1ccsc1 | > 200 | 158 µM | –
C[n+]1c2ccccc2c(/C=N\NS(=O)(=O)c2ccc(Cl)cc2)c2ccccc21 | – | – | inactive
CCOC(=O)CNC(=O)C(CSSCC(NC(=O)OCc1ccccc1)C(=O)OC)NC(=O)C(NC(=O)OCc1ccccc1)C(C)C (stereo not given) | > 200 | 129 µM | –
COc1cc(OC)c(C2c3cc4c(cc3OC(N3CCOCC3)C2C)OCO4)c(OC)c1 (stereo not given) | > 200 | 11.2 µM | –
N#CC(C#N)=Cc1ccc2c(c1)OC(Cl)O2 (stereo not given) | – | – | inactive
COC(=O)CCNC(=O)OCc1ccccc1 | > 200 | > 200 µM | –
Cc1c(OCCCOc2ccc3c(=O)cc(-c4ccccc4)oc3c2C)ccc2c(=O)cc(-c3ccccc3)oc12 | > 25.1 | > 25.1 µM | –
C[C@]12CCC(=O)C(O)=C1CC[C@@H]1C2CC[C@]2(C)Nc3c(cnn3-c3ccccc3)CC12 (stereo not given in full) | – | – | inactive

Structure (SMILES) | EC50 [µM] | IC50 | outcome
O=Cc1ccc2c(c1)CC1(C2)Cc2ccc(C=O)cc2C1 | > 200 | 4.79 µM | –
CN1C(Cl)=NS(=O)(=O)c2ccccc21 | > 200 | > 200 µM | –
O=C(CC1(O)C(=O)Nc2c(Cl)cc(Cl)cc21)c1ccc(Br)cc1 (stereo not given) | > 26.9 | 15.8 µM | –
CCOC(=O)CSc1ccnc(=O)[nH]1 | > 851 | > 851 µM | –
N#Cc1nc(CCC(C(=O)O)N2C(=O)c3ccccc3C2=O)oc1N (stereo not given) | > 100 | > 100 µM | –
N/N=C(/CC(O)(C(F)(F)F)C(F)(F)F)c1ccccc1 | > 200 | 112 µM | –
C=C1CC(COc2ccc3ccc(=O)oc3c2)(c2ccccc2)OC1=O (stereo not given) | > 2 | 0.724 µM | –
O=C1C=CC(=O)c2c1ccc1c3ccccc3n(CCCCCn3c4ccccc4c4ccc5c(c43)C(=O)C=CC5=O)c21 | > 200 | 3.31 µM | –
Cc1cn(C2CC(N=[N+]=[N-])C(COC(=O)C3OC(C)(C)O[C@@]34CC[C@H]3[C@@H]5CCC6=CC(=O)C=C[C@]6(C)[C@H]5[C@@H](O)C[C@@]34C)O2)c(=O)[nH]c1=O (stereo not given in full) | 0.0589 | 11.5 µM | –
COc1ccc(/C=N/Nc2nnc3c4ccccc4n(C)c3n2)cc1 | > 200 | > 200 µM | –
NC1CNC(=O)c2cscc21 (stereo not given) | > 200 | > 200 µM | –
CCOC(=O)NC(=O)c1cn(CC(=O)NCC(=O)NCC(=O)N2CCN(CCn3c(C)nc(C(N)=O)c3N)CC2)c(=O)[nH]c1=O | – | – | inactive
c1ccc2cc3c(NC4=NCCO4)cccc3cc2c1 | > 200 | 64.6 µM | –
O=c1[nH]c2ccc(Cl)cc2c2oc(-c3ccccc3)nc12 | – | – | inactive
CN(C)C1C(=O)C(C(N)=O)=C(O)C2(O)C(=O)C3=C(O)c4c(O)cccc4C(C)(O)C3CC12 (stereo not given) | > 562 | 40.7 µM and 10.7 µM | –
NC(=O)c1nnsc1NN=O | > 200 | > 200 µM | –
COc1ccccc1/C=C1\C(=O)N(C(=O)c2ccc(NC(C)=O)cc2)N=C1C | > 19.1 | > 19.1 µM | –
COc1cc2c(cc1OC)C(Cc1ccc(O)cc1)N(C)CC2 (stereo not given) | – | – | inactive
COC(=O)C(=O)C(C(=O)C(=O)Nc1ccc(Cl)cc1C)c1nc2ccc(C(=O)c3ccccc3)cc2[nH]c1=O (stereo not given) | – | – | inactive
Cc1ccc(NC(=O)CC(=O)n2nc(-c3ccccc3)c(N=Nc3ccc(Cl)cc3)c2-c2ccccc2)cc1 | > 9.77 | > 9.77 µM | –
Clc1ccc(-n2nnc(C3=NCCN3)c2-c2ccccc2)cc1 | > 30.9 | > 30.9 µM | –
CC(NO)/C(=N/O)c1ccco1 (stereo not given) | > 200 | > 200 µM | –
CN1C(=O)C(C)(O)c2ccccc21 (stereo not given) | > 1410 | 550 µM | –

Structure (SMILES) | EC50 [µM] | IC50 | outcome
CN(C)c1nc(N(C)C)nc(N(C)CN(C)c2ccc(Cl)cc2)n1 | > 50.1 | > 50.1 µM | –
CC1(C)CC2=C(SC3C=CC=CC3N2)C(=O)C1C(=O)C(N)=O (stereo not given) | > 58.9 | > 58.9 µM | –
O=c1c2cc(S(=O)(=O)Nc3c(Cl)cccc3Cl)ccc2ncn1NS(=O)(=O)c1ccc2ccccc2c1 | > 200 | 37.2 µM | –
NC(=Nc1nc(-c2ccccn2)cc2ccccc12)c1ccccn1 | > 22.4 | 0.0851 µM | –
O=C1NN=C2CCCCCCC12 (stereo not given) | > 302 | > 302 µM | –
Cc1cc(N(CCC#N)CCC#N)ccc1N=Nc1ccc([N+](=O)[O-])cc1 | > 14.5 | > 14.5 µM | –
O=C1/C(=C/c2ccc([N+](=O)[O-])cc2)Cc2ccccc21 | > 2.04 | > 2.04 µM | –
Cc1cc(C)nc(NC(=O)Nc2cc(Cl)ccc2C)c1 | > 200 | > 200 µM | –
CC1(C)CCCC2(C)C3C(O)CC2(C)C(O)C31 (stereo not given) | > 282 | > 282 µM | –
COc1ccc(N=C/C=C/Nc2ccc(OC)cc2)cc1 | > 200 | 7.41 µM | –
Fc1ccc(C=NC23CC4CC(CC(C4)C2)C3)cc1 | > 28.2 | > 28.2 µM | –
O=C(Cn1cc(F)c(=O)[nH]c1=O)C12CC3CC(CC(C3)C1)C2 | > 200 | 186 µM | –
C/C(N)=C/C(=O)c1[nH]c(C(=O)O)cc1C1CCN(Cc2ccccc2)C1=O (stereo not given) | > 200 | 31.6 µM | –
O=C(c1ccccc1)C1CSS(=O)(=O)C1c1ccccc1 (stereo not given) | 27.5 | 91.2 µM | –
CCOC(=O)N[C@H]1CCc2cc(OC)c(OC)c(OC)c2-c2ccc(SC)c(=O)cc21 | > 0.2 | 0.00123 µM | –
CC1CSc2nc3[nH]c(=S)[nH]c3c(=O)n2C1 (stereo not given) | > 200 | > 200 µM | –
O=C(OCc1ccccc1)N(CCCCN(CCCNCc1ccccc1)C(=O)OCc1ccccc1)CCCNCc1ccccc1 | > 2 | 0.871 µM | –
COc1ccc(-c2c(C#N)c(S)n(NS(=O)(=O)c3ccccc3)c(=O)c2C#N)cc1 | > 200 | 12.6 µM | –
O=C1CS/C(=N/N=C/c2nc3ccccc3c(=O)n2-c2ccc(Cl)cc2)N1c1ccccc1 | > 38 | > 38 µM | –
O=C(O)C1=CN=C(C(=O)O)NN1 | > 1150 | 617 µM | –
CC(=O)OC[C@@H]1[C@H]2CC(=O)O[C@H]2C[C@H]1OC(C)=O | – | – | inactive
Cn1c(=O)cc(Nc2ccc(N)cc2)[nH]c1=O | > 200 | > 200 µM | –
Cc1cccc(N=C2NC(=O)C(CC(=O)Nc3ccc(C)cc3C)S2)c1 (stereo not given) | > 26.9 | > 26.9 µM | –

Structure (SMILES) | EC50 [µM] | IC50 | outcome
O=S(Cc1cc2c(cc1Br)OCO2)c1ccccc1 (stereo not given) | > 39.8 | > 39.8 µM | –
FC(F)(Sc1ncc[nH]1)c1nc2ccccc2o1 | 43.7 | > 200 µM | –
Cc1nc2ccccc2c(=O)n1Cc1nc2ccccc2[nH]1 | – | – | inactive
O=C(OCC1CO1)c1cccs1 (stereo not given) | – | – | inactive
C=CCOC(=O)Cn1ccc(=O)[nH]c1=O | > 200 | > 200 µM | –
Cc1cc(NS(=O)(=O)c2ccc(NC(=O)c3cccc4c(Nc5ccc(S(N)(=O)=O)cc5)c5ccccc5nc34)cc2)no1 | > 148 | > 148 µM | –
CCCCOC(=O)c1c2nc3c(C(=O)OCCCC)ccc(C)c3oc-2c(C)c(=O)c1NC(C)=O | > 151 | 24.5 µM | –
COc1nc2ccc(CNc3ccc(C(=O)O)cc3)cc2nc1OC | > 200 | > 200 µM | –
O=c1oc2ccccc2c2c1SC(c1ccncc1)C2 (stereo not given) | > 200 | > 200 µM | –
N#C/C(c1nc2ccccc2[nH]1)=c1\s/c(=C(/N)O)c(=N)n1-c1ccccc1 | > 13.8 | > 13.8 µM | –
COC(=O)C(=O)C(/C=N/C(=S)Nc1ccc(S(=O)(=O)Nc2nccs2)cc1)=C(\O)c1c(C)[nH]c2ccccc12 | > 200 | 72.4 µM | –
CS(=O)(=O)Nc1ccc2c(c1)N(S(C)(=O)=O)CC2COS(C)(=O)=O (stereo not given) | > 200 | 40.7 µM | –
COC1OCC(N)C(O)C1O (stereo not given) | – | – | inactive
O=C(CC(=O)Nc1ccccc1F)N/N=C/c1ccccc1 | – | – | inactive
CCOC(=O)CC(C(=O)OCC)S(=O)(=O)O (stereo not given) | > 200 | > 200 µM | –
O=C(O)/C=C\C(=O)Nc1ccc(SSc2ccc(NC(=O)/C=C\C(=O)O)cc2)cc1 | 182 | > 200 µM | –
COc1ccc(-c2oc3cc(OC(C)=O)cc(OC(C)=O)c3c(=O)c2OC)cc1 | – | – | inactive
NCCN.O=N[O-].O=N[O-].O=N[O-].O=N[O-].[Co+3].[K+] | > 724 | 219 µM | –
O=C(Nc1ccc(N=Nc2ccc(O)c(C(=O)O)c2)cc1)Nc1ccc(N=Nc2ccc(O)c(C(=O)O)c2)cc1 | > 200 | 141 µM | –
CC(=O)Nc1c(Nc2ccc3c(=O)[nH]ccc3c2C)cc[nH]c1=O | > 398 | 191 µM | –

— PubChem BioAssay AID179 (DTP/NCI, 2004)
